Assay results: patent US10435376B2, “Derivatives of 1H-imidazole-4,5-dicarboxamide and use thereof in preparation of anticoccidial drugs” (GUANGZHOU INSIGHTER BIOTECHNOLOGY CO., LTD., priority 2015, dated 2019)
Like-named read-outs stand apart in the source and are kept apart here.

What was measured:
Type in all cases: in vivo
[1] = tested on: Eimeria tenella; assay: Inhibitory effects of the derivatives on Eimeria tenella of chicken (60 ppm in feed); conditions: for responders at 60 ppm, 60 µg/mL / response vs control in vivo at 60 ppm, 60 µg/mL: Eimeria tenella, 168 h; for responders at 60 ppm, 60 µg/mL: read-out: Survival rate (%); for response vs control in vivo at 60 ppm, 60 µg/mL: relative to group 1 (not infected, not treated), read-out: Relative weight gain (%); for Score (bloody stool score): 5 days after inoculation
Excerpt: (§1) One-day-old yellow-feather fast-growing broilers were raised in a coccidia-free environment, and divided into groups for trial at the age of 18 days when no coccidian oocysts were detected by microscopy in their faeceas. Weak or overweight broilers were removed, and healthy broilers were divided into 30 groups with 50 broilers in each group and weight difference between each two broilers was below 20 g. Groups 1 and 2 were respectively a control group that the broilers were neither infected nor treated, and a control group that the broilers were infected but not treated. Groups 3 to 30 were respectively administrated with different derivatives. The broilers were given ad libitum access to feed and water when the feed was added with different medicines according to Table 1 at the day the broilers were divided. 24 Hours after the trial began, 250,000 sporulated Eimeria tenella oocysts were inoculated via an oral gavage into the crop of every broiler in each group except group 1. Bloody stool score was measured 5 days after the inoculation and the trial was ended 7 days after the inoculation. Relative weight gain (%), survival rate (%) and the bloody stool score were evaluated.
(§2) Bloody stool score: 0, no bloody stool was observed; 1, bloody stool below 25%; 2, 25 to 50% of bloody stool; 3, 50 to 75% of bloody stool; and 4, bloody stool over 75%.
(§3) Relative weight gain (%): The broilers were weighed at the beginning and the end of the trial to calculate the average weight gain and relative weigh gain. Relative weight gain=(average weight gain of each group/average weight gain of group 1)×100%.
(§4) Deaths of the broilers: Necropsy was performed and the amount of dead broilers in each group was recorded to calculate the survival rate. Survival rate=(total amount of the broilers in each group−amount of deaths caused by coccidial infection)/total amount of the broilers in each group×100%.

[2] = tested on: Eimeria acervulina; assay: Inhibitory effects of the derivatives on Eimeria acervulina of chicken; conditions: for responders at 60 ppm, 60 µg/mL / response vs control in vivo at 60 ppm, 60 µg/mL: Eimeria acervulina, 168 h; for responders at 60 ppm, 60 µg/mL: read-out: Survival rate (%); for response vs control in vivo at 60 ppm, 60 µg/mL: feed or water, read-out: Relative weight gain (%)
Description: as §3, §4
One-day-old yellow-feather fast-growing broilers were raised in a coccidia-free environment, and divided into groups for trial at the age of 18 days when no coccidian oocysts were detected by microscopy in their faeceas. Weak or overweight broilers were removed, and healthy broilers were divided into 10 groups with 50 broilers in each group and weight difference between each two broilers was below 20 g. Groups 1 and 2 were respectively a control group that the broilers were neither infected nor treated, and a control group that the broilers were infected but not treated. Groups 3 to 10 were respectively administrated with different derivatives. The broilers were given ad libitum access to feed and water when the feed was added with different medicines according to Table 3 at the day the broilers were divided. 24 Hours after the trial began, 400,000 sporulated Eimeria acervulina oocysts were inoculated via an oral gavage into the crop of every broiler in each group except group 1. The trial was ended 7 days after the inoculation. Relative weight gain (%), survival rate (%) and feed conversion ratio were evaluated.

[3] = tested on: Eimeria necatrix; assay: Inhibitory effects of the derivatives on Eimeria necatrix of chicken; conditions: for responders at 60 ppm, 60 µg/mL / response vs control in vivo at 60 ppm, 60 µg/mL: Eimeria necatrix, 168 h; for responders at 60 ppm, 60 µg/mL: read-out: Survival rate (%); for response vs control in vivo at 60 ppm, 60 µg/mL: feed or water, read-out: Relative weight gain (%); for response vs control in vivo at 60 ppm, 60 µg/mL / Score (bloody stool score): broilers, 60 ppm in feed, 100,000 E. necatrix oocysts; for Score (bloody stool score): 5 days after inoculation
Description: as §2, §3, §4
as §1, with “into 10” for “into 30”, “to 10” for “to 30”, “Table 4” for “Table 1”, “began, 100,000” for “began, 250,000”, “Eimeria necatrix” for “Eimeria tenella”, “were evaluated (according to embodiment 2).” for “were evaluated.”

[4] = broilers, 60 ppm in feed, 250,000 E. tenella oocysts, 7 days after inoculation
[5] = broilers, 60 ppm in feed, 250,000 E. tenella oocysts
[6] = broilers, 60 ppm in feed, 400,000 E. acervulina oocysts

SMILES: CS(=O)(=O)c1ccc(Cn2cnc(C(N)=O)c2C(N)=O)cc1 [IST15150, 1-(4-(methylsulfonyl)benzyl)-1H-imidazole-4,5-dicarboxamide]
- responders at 60 ppm, 60 µg/mL [1, 4]: 100%
- response vs control in vivo at 60 ppm, 60 µg/mL [1, 5]: 86.3%
- Score (bloody stool score) [1, 5]: 2 (25 to 50% of bloody stool)

SMILES: NC(=O)c1ncn(Cc2cc([N+](=O)[O-])cc([N+](=O)[O-])c2)c1C(N)=O [IST15056, 1-(3,5-dinitrobenzyl)-1H-imidazole-4,5-dicarboxamide]
- responders at 60 ppm, 60 µg/mL [1]: 100%
- response vs control in vivo at 60 ppm, 60 µg/mL [1, 5]: 81.3%
- Score (bloody stool score) [1, 5]: 3 (50 to 75% of bloody stool)
- responders at 60 ppm, 60 µg/mL [2]: 100%
- response vs control in vivo at 60 ppm, 60 µg/mL [2, 6]: 72.5%
- Feed conversion ratio [2, 6]: 2.405

SMILES: NC(=O)c1ncn(Cc2c(Cl)cccc2Cl)c1C(N)=O [IST15044, 1-(2,6-dichlorobenzyl)-1H-imidazole-4,5-dicarboxamide]
- responders at 60 ppm, 60 µg/mL [1, 4]: 100%
- response vs control in vivo at 60 ppm, 60 µg/mL [1, 5]: 79.8%
- Score (bloody stool score) [1, 5]: 3 (50 to 75% of bloody stool)

SMILES: CC(=O)NC(=O)c1ncn(Cc2ccc(Cl)cc2)c1C(=O)NC(C)=O [IST15151, N^4,N^5-diacetyl-1-(4-chlorobenzyl)-1H-imidazole-4,5-dicarboxamide]
- responders at 60 ppm, 60 µg/mL [1, 4]: 100%
- response vs control in vivo at 60 ppm, 60 µg/mL [1, 5]: 83.6%
- Score (bloody stool score) [1, 5]: 3 (50 to 75% of bloody stool)

SMILES: O=C(Nc1ccc([N+](=O)[O-])cc1)c1nc[nH]c1C(=O)Nc1ccc([N+](=O)[O-])cc1 [IST15009, N^4,N^5-bis(4-nitrophenyl)-1H-imidazole-4,5-dicarboxamide]
- responders at 60 ppm, 60 µg/mL [1]: 100%
- response vs control in vivo at 60 ppm, 60 µg/mL [1, 5]: 82.6%
- Score (bloody stool score) [1, 5]: 3 (50 to 75% of bloody stool)

SMILES: CC(C)n1cnc(C(N)=O)c1C(N)=O [IST15115, 1-isopropyl-1H-imidazole-4,5-dicarboxamide]
- responders at 60 ppm, 60 µg/mL [1, 4]: 100%
- response vs control in vivo at 60 ppm, 60 µg/mL [1, 5]: 85.9%
- Score (bloody stool score) [1, 5]: 3 (50 to 75% of bloody stool)

SMILES: CN1CCN(C(=O)c2nc[nH]c2C(=O)N2CCN(C)CC2)CC1 [IST15008, (1H-imidazole-4,5-diyl) bis((4-methylpiperazin-1-yl)methanone)]
- responders at 60 ppm, 60 µg/mL [1, 4]: 100%
- response vs control in vivo at 60 ppm, 60 µg/mL [1, 5]: 89.7%
- Score (bloody stool score) [1, 5]: 2 (25 to 50% of bloody stool)
- responders at 60 ppm, 60 µg/mL [3]: 100%
- response vs control in vivo at 60 ppm, 60 µg/mL [3]: 81.2%
- Score (bloody stool score) [3]: 3 (50 to 75% of bloody stool)

SMILES: CCCCCCn1cnc(C(N)=O)c1C(N)=O [IST15162, 1-hexyl-1H-imidazole-4,5-dicarboxamide]
- responders at 60 ppm, 60 µg/mL [1, 4]: 100%
- response vs control in vivo at 60 ppm, 60 µg/mL [1, 5]: 81.6%
- Score (bloody stool score) [1, 5]: 3 (50 to 75% of bloody stool)

SMILES: CCn1cnc(C(=O)NC(C)=O)c1C(=O)NC(C)=O [IST15165, N^4,N^5-diacetyl-1-ethyl-1H-imidazole-4,5-dicarboxamide]
- responders at 60 ppm, 60 µg/mL [1, 4]: 100%
- response vs control in vivo at 60 ppm, 60 µg/mL [1, 5]: 89.7%
- Score (bloody stool score) [1, 5]: 2 (25 to 50% of bloody stool)

SMILES: CCC(=O)NC(=O)c1ncn(Cc2ccc(Cl)cc2)c1C(=O)NC(=O)CC [IST15152, 1-(4-chlorobenzyl)-N^4,N^5-dipropionyl-1H-imidazole-4,5-dicarboxamide]
- responders at 60 ppm, 60 µg/mL [1, 4]: 100%
- response vs control in vivo at 60 ppm, 60 µg/mL [1, 5]: 85.6%
- Score (bloody stool score) [1, 5]: 3 (50 to 75% of bloody stool)

SMILES: COc1ccc(Cn2cnc(C(N)=O)c2C(N)=O)cc1 [IST15053, 1-(4-methoxybenzyl)-1H-imidazole-4,5-dicarboxamide]
- responders at 60 ppm, 60 µg/mL [1, 4]: 100%
- response vs control in vivo at 60 ppm, 60 µg/mL [1, 5]: 82.5%
- Score (bloody stool score) [1, 5]: 3 (50 to 75% of bloody stool)

SMILES: NC(=O)c1ncn(Cc2ccc(F)cc2)c1C(N)=O [IST15042, 1-(4-fluorobenzyl)-1H-imidazole-4,5-dicarboxamide]
- responders at 60 ppm, 60 µg/mL [1, 4]: 100%
- response vs control in vivo at 60 ppm, 60 µg/mL [1, 5]: 81.2%
- Score (bloody stool score) [1, 5]: 3 (50 to 75% of bloody stool)

SMILES: O=C1NC(=O)c2[nH]cnc21 [IST15015, pyrrolo[3,4-d]imidazole-4,6(1H,5H)-dione]
- responders at 60 ppm, 60 µg/mL [1, 4]: 100%
- response vs control in vivo at 60 ppm, 60 µg/mL [1, 5]: 72.5%
- Score (bloody stool score) [1, 5]: 4 (bloody stool over 75%)

SMILES: Cc1ccc(Cn2cnc(C(N)=O)c2C(N)=O)cc1 [IST15046, 1-(4-methylbenzyl)-1H-imidazole-4,5-dicarboxamide]
- responders at 60 ppm, 60 µg/mL [1, 4]: 100%
- response vs control in vivo at 60 ppm, 60 µg/mL [1, 5]: 78.4%
- Score (bloody stool score) [1, 5]: 3 (50 to 75% of bloody stool)

SMILES: Cc1nc(=O)c2[nH]cnc2c(=O)[nH]1 [IST15016, 6-methylimidazo[4,5-e][1,3]diazepine-4,8(1H,5H)-dione]
- responders at 60 ppm, 60 µg/mL [1, 4]: 100%
- response vs control in vivo at 60 ppm, 60 µg/mL [1, 5]: 74.8%
- Score (bloody stool score) [1, 5]: 2 (25 to 50% of bloody stool)
- responders at 60 ppm, 60 µg/mL ([2]; broilers, 60 ppm in feed, 400,000 E. acervulina oocysts, 7 days after inoculation): 100%
- response vs control in vivo at 60 ppm, 60 µg/mL [2, 6]: 75.6%
- Feed conversion ratio [2, 6]: 2.524

SMILES: NC(=O)c1ncn(Cc2cccc(Cl)c2)c1C(N)=O [IST15041, 1-(3-chlorobenzyl)-1H-imidazole-4,5-dicarboxamide]
- responders at 60 ppm, 60 µg/mL [1, 4]: 100%
- response vs control in vivo at 60 ppm, 60 µg/mL [1, 5]: 85.4%
- Score (bloody stool score) [1, 5]: 3 (50 to 75% of bloody stool)

SMILES: CCCCN1C(=O)c2nc[nH]c2C1=O [IST15013, 5-butylpyrrolo[3,4-d]imidazole-4,6(1H,5H)-dione]
- responders at 60 ppm, 60 µg/mL [1, 4]: 100%
- response vs control in vivo at 60 ppm, 60 µg/mL [1, 5]: 88.8%
- Score (bloody stool score) [1, 5]: 3 (50 to 75% of bloody stool)

SMILES: CCCCCn1cnc(C(N)=O)c1C(N)=O [IST15116, 1-pentyl-1H-imidazole-4,5-dicarboxamide]
- responders at 60 ppm, 60 µg/mL [1, 4]: 100%
- response vs control in vivo at 60 ppm, 60 µg/mL [1, 5]: 78.6%
- Score (bloody stool score) [1, 5]: 3 (50 to 75% of bloody stool)

SMILES: NC(=O)c1ncn(Cc2ccc(Cl)c(Cl)c2)c1C(N)=O [IST15054, 1-(3,4-dichlorobenzyl)-1H-imidazole-4,5-dicarboxamide]
- responders at 60 ppm, 60 µg/mL [1, 4]: 100%
- response vs control in vivo at 60 ppm, 60 µg/mL [1, 5]: 71.4%
- Score (bloody stool score) [1, 5]: 4 (bloody stool over 75%)

SMILES: NC(=O)c1ncn(Cc2ccc(Oc3ccc(Cl)cc3)cc2)c1C(N)=O [IST15167, 1-(4-(4-chlorophenoxy)benzyl)-1H-imidazole-4,5-dicarboxamide]
- responders at 60 ppm, 60 µg/mL [1, 4]: 100%
- response vs control in vivo at 60 ppm, 60 µg/mL [1, 5]: 82.7%
- Score (bloody stool score) [1, 5]: 3 (50 to 75% of bloody stool)
- responders at 60 ppm, 60 µg/mL [3]: 100%
- response vs control in vivo at 60 ppm, 60 µg/mL [3]: 75.8%
- Score (bloody stool score) [3]: 3 (50 to 75% of bloody stool)
